≈ marks a conversion by molar mass, not a printed value.
Key:
[1] = Solubility of photoreactive compounds in 1×TE; format: physicochemical; settings: excess compound heated 50-70° C., stirred at room temperature, filtered, optical density
Description: The solubilities of AMIP, AMDMIP, DMIP, MIP and isopsoralen (IP) were determined experimentally according to the scheme set forth in FIG. 5. To perform the solubility measurement, it was first necessary to establish known optical densities for a 1 μg/ml solution of each compound. These were determined by preparing either ethanolic or aqueous stocks of each compound at known concentrations in 1×TE, then measuring the optical density of each solution. From this information, the absorption of a 1 μg/ml solution was computed. Alternatively, the extinction coefficient may be thus determined and used in the same fashion. In this manner, the following absorption data was collected:
Following this step, undissolved compound was removed by filtration using a 0.2 u nylon-66 syringe filter (Arco LC13; Gelman). The concentration of the remaining soluble compound was then determined by measuring the optical density of the filtrate and computing the solubility from the known optical density of a 1 μg/ml solution of that compound. The solubility of the compounds was thus determined to be as follows: […]

PCR'd MACS 1555 target = test: Inhibition of PCR by non-psoralen compounds in the absence of light; format: biochemical
Text: The compounds tested were the following: 1) ethidium bromide (a Phenanthridine, see Table 1), 2) xylene cylanol (an Organic Dye, see Table 1), 3) bromphenol blue (an Organic Dye, see Table 1), 4) coumarin and 5) methylene blue (a Phenazathionium Salt, see Table 1).
A separate experiment examined PCR inhibition with coumarin and methylene blue in the absence of light. The following concentrations of methylene blue were tried: 4.3×10^−2, 4.3×10^−3, 4.3×10^−4 and 4.3×10^−5 M. Concentrations of coumarin tried included: 7×10^−3, 7×10^−4, 7×10^−5 and 7×10^−6 M. Compound was added to PCR tube containing α-^32P-dCTP and target (1 μl […].; PCR'd MACS 1555 per assay-point). PCR was carried out for 30×cycles. Samples were loaded onto a 12%/8 M urea gel.

[2] = system: DNA polymerase I from E. coli. B; settings: covalently bound compound; cited from earlier work
Taq I DNA polymerase = test: Primer extension on site-specific monoadducted 71-mer, Taq polymerase; format: biochemical, Thermus aquaticus; settings: 55° C., single extension
Description: In this experiment, monoadducted 71-mers (as well as unmodified 71-mers) were used in template-dependent enzymatic extension. AMIP, AMDMIP, and MIP 71-mer monoadducts were made as in Example 42. Extension was carried out as in Example 43 except that in this experiment, Taq I DNA polymerase, a thermostable DNA polymerase isolated from Thermus aquaticus (Stratagene, Inc., La Jolla, Calif.) was assessed for its ability to read past isopsoralens.
The reaction mixture was in 80 μl total volume and comprised 1×Taq buffer, 200 μM each of dNTP's, 0.05 units of Taq per μl of reaction volume; 1×10^−9 M in 71-mer MA; 1×10^−8 M in ^32P-labelled SK-39. Each reaction was set up with everything except Taq polymerase. The samples were initially heated to 95° C. for 5 mins, then incubated at 55° C. for 3 mins. The extension reaction was initiated by addition of Tas polymerase. At the indicated time points (0.5, 1.0, 5.0 mins), 20 μl of the reaction mix was removed to a tube containing 1 μl of 0.5 M EDTA to stop the reaction. All products were analyzed on a 20% polyacrylamide, 7 M urea gel followed by autoradiography.
This experiment investigated whether blocking of Tag polymerase by monoadducts is complete or whether monoadducts can be bypassed by the enzyme. In order to view the process of bypass syrthesis, it is necessary to cycle the extension reaction of the primer with the 71-mer templates. Cycling in this case consists of mixing the primer with the 71-mer template, adding Taq polymerase and appropriate reagents, extending, heating to induce strand separation, reannealing of the primer to the 71-mer template, extending again, and subsequent stand separation. This process can be repeated as necessary. During this process, only the complement of the 71-mer template is being synthesized. It is accumulating in a linear fashion with the number of thermal cycles (in contrast to PCR where both strands are being synthesized and accumulate geometrically).
The templates and reaction conditions were as in Example 44 above except that three samples were used for each monoadduct and each sample was tested under different conditions:
Samples (1): one sample for each monoadduct was used to carry out extension at 55° C. as in Example 43;
Samples (2): one sample for each monoadduct was used to carry out extension by the following series of steps: denaturing at 95° C.; incubating for 30 seconds at 55° C.; adding Taq polymerase for 3 minutes at 55° C.; cooling the reaction for 1 minute at 7° C.; stopping the reaction with EDTA for one minute at 95° C.
Samples (3): one sample for each monoadduct was used to carry out extension by repeating the following series of steps nine times: denaturing at 95° C.; incubating for 30 seconds at 55° C.; adding Taq polymerase for 3 minutes at 55° C.; cooling the reaction for 1 minute at 7° C. At the end, the reaction is stopped with EDTA for one minute at 95° C.
To investigate this question further, a new 5-MIP monoadducted 71-mer was prepared by repurification of the HPLC purified 5-MIP ronoadducted 15-mer by PAGE. In this way, more of the non-monoadducted 15-mer was removed prior to ligation. The purified 71-mer was then used as template in an extension experiment as described in Example 45. After 10 cycles, there was still evidence of extension product (FIG. 34).
Monoadducted 71-mer was constructed as described, but for HMT. Extension was carried out and analyzed as before on PAGE. […] Full length 71-mer is not made and a shorter strand corresponding to the position of the HMT adduct was made.

E. coli polymerase I = settings: cited from earlier work
HIV 115-mer = test: PCR with pre-irradiated photobiotin or monoazide ethidium chloride; format: biochemical
Description: In this experiment, photobiotin and monoazide ethidium chloride were tested as PCR sterilization reagents. The temporal steps were performed to examine photoproduct effects (if any). Solutions of photobiotin and monoazide ethidium chloride were made up in 1×Taq buffer. […] Each compound solution was divided into two parts: One part was irradiated under a GE sunlamp through a pyrex filter (300nm cut-off); the other half was irradiated under a GE sunlamp through a 2.9 M NaNO2 liquid filter (400 nm cut-off). Irradiations were carried out on ice for 15 minutes. After irradiation, aliquots of each tube were carried over into tubes containing PCR reagents and target (HIV 115-mer); PCR was then carried out for 30 cycles in the presence of α-^32P-dCTP. After amplification aliquots were analyzed on 12% acrylamide/8M urea gels.

Taq polymerase = Taq polymerase (Thermus aquaticus, UniProt P19821); test: Taq primer extension of 71-mer after random addition of compound or photoproduct; format: biochemical; settings: photobiotin 6×10^−6 M
Text: In this experiment, the ability of AMIP, AMDMIP and MIF to block replication of 71-mer is investigated by randomly adding each compound to the 71-mer. Of course, addition may only be random in the sense that one or more adducts may be formed with any one strand of nucleic acid. The actual placement of the isopsoralen may be governed by preferential binding at particular sites (e.g. A:T). In addition to blockage by random adducts, photoproducts of the various isopsoralens may be providing an inhibitory effect. No attempt to separate the effects of photoproduct from the effects of covalent adducts on the 71-mer template was made in this series of experiments.
In these experiments, the 71-mer template (10^−9 M) was primed with ^32P-SK-39 (10^−8) and extended with Taq polymerase in a total volume of […]. The dNTP concentration was 200 μM. In the control samples, the 71-mer, the primer, and the dNTPs were mixed in Taq buffer in a volume of 18 p1. These samples were initially denatured at 95° C. for 5 minutes, followed by equilibration at 55° C. for 3 minutes. Taq enzyme was then added (0.5 units) and the extension reaction was carried out for 5 minutes at 55° C. The reaction was stopped by making the solution 10 mM in EDTA. In another set of samples, the 71-mer in 10 μl was mixed with either AMIP (200 μg/ml), AMDMIP (200 μg/ml), or MIP (60 μg/ml). Half of these samples were irradiated for 15 minutes on the CE-I device at 25° C. The other half was kept in the dark as controls. These samples were then mixed with the primer and dNTPs as before, and were subjected to the same thermal profile and extension reactions as the samples that were described earlier. The results were examined by PAGE. The extended product bands were identified by autoradiography, excised and counted (data not shown). […]
71-mer was made up in Taq buffer. Samples were prepared as follows: 1) dark control samples were not subjected to activating light; 2) 10 μl samples of the 71-mer (2×10^−9 M) were irradiated in the presence of 200 μg/ml AMDMIP, and 3) 10 μl samples of a 200 μg/ml solution of AMDMIP were irradiated in the absence of the 71-mer target. All irradiations were carried out with the CE-I device at 25° C. After preparing the above samples, unirradiated AMDMIP was added to one set of the dark control samples. Another set of dark controls received irradiated AMDMIP. ^32P-SK-39 primer and dNTPs were then added to all samples and the volume was adjusted to 18 μl. These samples were denatured at 95° C. for 5 minutes, followed by equilibration at 55° C. for 3 minutes. Taq polymerase was then added and the extension reaction was carried out for 5 minutes. The reaction was stopped by bringing the samples to 10 mM in EDTA. The final concentrations of all reagents during the extension reactions were: […]

[3] = as reported by Dall'Acqua et al.; cited from earlier work
human placental DNA = test: PCR in presence of AMDMIP and DMSO co-solvent; format: biochemical; settings: no AMDMIP, 0% DMSO gave 139,000
Description: In this example, the effect of DMSO on PCR amplification in the presence of high concentrations of sterilizing compound (AMDMIP) was investigated. Samples were prepared for PCR which contained 1 μg of human placental DNA either with or without (unirradiated) AMDMIP (200 μg/ml). The samples were amplified 30 cycles under standard PCR conditions in the presence of 0%, 1%, 5% or 10% DMSO. The reaction mix contained α-^32P-dCTP. Following amplification, the samples were analyzed by PAGE (data not shown).

Taq polymerase, sequence (P19821 whole entry): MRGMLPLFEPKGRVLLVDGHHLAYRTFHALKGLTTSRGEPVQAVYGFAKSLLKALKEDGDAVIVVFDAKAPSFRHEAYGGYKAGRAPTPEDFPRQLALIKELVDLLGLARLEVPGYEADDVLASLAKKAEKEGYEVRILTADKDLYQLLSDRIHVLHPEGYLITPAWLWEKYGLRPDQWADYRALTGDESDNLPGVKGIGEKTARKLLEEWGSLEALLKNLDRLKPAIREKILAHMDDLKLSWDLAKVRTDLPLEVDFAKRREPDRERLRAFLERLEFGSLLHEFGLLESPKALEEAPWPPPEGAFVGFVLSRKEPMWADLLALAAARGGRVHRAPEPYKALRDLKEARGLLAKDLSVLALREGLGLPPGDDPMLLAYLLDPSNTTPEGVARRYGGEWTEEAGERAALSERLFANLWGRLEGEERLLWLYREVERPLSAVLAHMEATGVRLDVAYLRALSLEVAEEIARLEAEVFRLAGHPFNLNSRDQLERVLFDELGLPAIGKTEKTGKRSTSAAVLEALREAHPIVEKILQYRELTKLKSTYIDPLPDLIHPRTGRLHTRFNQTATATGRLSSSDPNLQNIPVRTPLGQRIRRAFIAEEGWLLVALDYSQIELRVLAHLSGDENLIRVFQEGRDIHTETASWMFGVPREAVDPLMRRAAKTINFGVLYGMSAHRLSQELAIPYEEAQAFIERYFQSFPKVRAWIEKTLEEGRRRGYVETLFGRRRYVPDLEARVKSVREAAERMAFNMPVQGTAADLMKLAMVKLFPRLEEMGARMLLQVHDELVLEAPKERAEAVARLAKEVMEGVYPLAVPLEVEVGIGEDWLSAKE

With O=c1ccc2ccc3occc3c2o1 [IP, isopsoralen, reference compound] the solubility ([1]; 1×TE buffer, aqueous buffer, thermodynamic from solid) was 2 µg/mL (≈ 10.7 µM).

With CN(C)c1ccc2nc3ccc(=[N+](C)C)cc-3sc2c1 [methylene blue] the “concentrations that inhibited PCR in the absence of light” value (PCR'd MACS 1555 target; tested 4.3×10^−2 to 4.3×10^−5 M, 30 cycles) was “above 4.3×10^−5 M”.

For COc1cc(OC)c2ccc(=O)oc2c1 [DMC, 5,7-dimethoxycoumarin], the “loss of template activity of modified DNA” value [2] is listed as 50%.

In the case of Cc1oc2c(C)c3oc(=O)cc(C)c3cc2c1CO [HMT, 4′-hydroxymethyl-4,5′,8-trimethylpsoralen], the “Taq polymerase extension on 71-mer monoadduct template” value (Taq I DNA polymerase) is given as “stop Tag polymerase”, the “inhibition of polymerase by covalently bound monoadducts” value (E. coli polymerase I; nick-translating a double-stranded template) is given as “not inhibited” and the “inhibition of polymerase by monoadducts” value (E. coli polymerase I; single-stranded bacteriophage DNA template) is given as “inhibited”.

In the case of CC[n+]1c(-c2ccccc2)c2cc(N=[N+]=[N-])ccc2c2ccc(N)cc21 [monoazide ethidium chloride, reference compound], the “inhibition of PCR by pre-irradiated compound” value (HIV 115-mer; 3×10^−6 M to 3×10^−10 M, GE sunlamp 15 minutes on ice, 30 cycles) is reported as “does not inhibit PCR” and the “extension of 71-mer, dark control” value (Taq polymerase; monoazide ethidium 1.4×10^−3 M, kept in the dark) is reported as “inhibition of extension”.

For CN(CCCNC(=O)CCCC[C@@H]1SC[C@@H]2NC(=O)N[C@@H]21)CCCNc1ccc(N=[N+]=[N-])cc1[N+](=O)[O-] [photobiotin, reference compound], the “concentration of pre-irradiated compound that shut down PCR” value (HIV 115-mer; range 7×10^−4 M to 7×10^−10 M, 115-mer amplified at all lower concentrations) was 700 µM and the “extension of 71-mer after irradiation with compound” value (Taq polymerase; GE sunlamp 15 minutes on ice) was “inhibition only after irradiation”.

In the case of COc1c2occc2cc2ccc(=O)oc12 [Compound 8-MOP, 8-methoxypsoralen], the “loss of template activity of modified DNA” value [2] is given as 97%.

In the case of Cc1cc2c(ccc3c(C)cc(=O)oc32)o1 [DMIP, 4,5′-Dimethylisopsoralen], the maximum aqueous solubility [3] is given as 8 µg/mL and the “Solubility in 1 × TE” value [1] is given as “nd** (nd = not detectable (solubility was less than 1 μg/ml))”.

In the case of O=c1ccc2ccccc2o1 [Coumarin, coumarin], the “inhibition of PCR in the absence of light” value (PCR'd MACS 1555 target; dark control, coumarin 7×10^−3 to 7×10^−6 M) is reported as “did not inhibit PCR at any of the concentrations tested”.

With C[S+](C)[O-] [DMSO, dimethyl sulfoxide] the “product band CPM (average of duplicate samples)” value (“product band CPM” for short) (human placental DNA; 1% DMSO) was 137,000 CPM, the “product band CPM” value (human placental DNA; 5% DMSO) was 94,000 CPM and the “product band CPM” value (human placental DNA; 10% DMSO) was 76,000 CPM.

Reference: US6680025B2, “Device and method for photoactivation” (Cerus Corporation, priority 1989, dated 2004)
